These results are taken from patent US20240016784A1, “Y BOX BINDING PROTEIN 1 INHIBITORS” (Oregon Health & Science University, priority 2020, published 2024).

One data set relates to OVCAR-8 and ID8 cells. The data set is described as follows: Clonogenic assay. The data set is classed as cell-based. Here is the method: We tested the relationship between AzPs dose and the viability of human ovarian cancer cell lines and the ID8 murine ovarian cancer cell line.
Clonogenic assay: 300 suspended OC cells were plated in each well of 12 well plates (Corning-Costar, #3598) and incubated for 24 h for attachment. The media was replaced after 24 h with media containing a respective concentration of the test compound and incubated for 5-8 days until visible colonies appeared in vehicle-treated wells. Cells were then washed and fixed with 2% paraformaldehyde, followed by washing and staining with 0.5% Crystal violet for 1 h. Cells were de-stained using DI water and allowed to dry. Colonies were counted under the microscope at 100× magnification.
(§1) FIG. 1A) Lead optimization of SU093 to obtain SU056. FIG. 1B) IC50 values of SU093 and SU056 on various ovarian cancer cells. Clonogenic survival of OC cells treated with SU093 or SU056. […] FIG. 1C) Representative colony formation from respective wells. FIG. 1D) Number of colonies formed after SU093 and SU056 treatment. […] FIG. 1F) Cell cycle distribution of propidium iodide (PI)-stained OVCAR8, SKOV3, and ID8 cells. […] FIG. 1G) Effects of SU093 and SU056 on apoptotic cell death analyzed by Annexin-FITC staining. […] FIG. 1H) Cell migration assay.

Data set [1] concerns YB-1, TMSB10, SUMO2 and PMSB2 proteins. Put plainly: Western blot of CETSA targets in OVCAR8 cells. Type of data set: cell-based, human. The following applies: 1, 2.5 and 5 μM for 12 h. Here is the method:
Out of six targets identified, we selected proteins whose thermal shift is above 5° in the presence of SU056 for further study of protein expression after treatment. […] To study the in vivo effects of SU056 treatment, we analyzed ID8 tumor xenograft samples via immunohistochemistry (IHC). […] To identify the broader effects of SU056 on YB-1 and its downstream protein/activity in different ovarian cancer cell lines, we selected six different cell lines and treated them with SU056 (2.5 μM) for 12 h. Cells were analyzed for YB-1 and CD44 expression and Multidrug resistance 1 (MDR1, ABC pump mediated efflux). […] OVCAR4, OVCAR8, and SKOV3 cells were treated with SU056 (1, 2.5, and 5 μM) for 3, 6, 12, and 24 h and YB-1 expression was measured using YB-1 ELISA. […]
Immunoblotting: Once 70% confluency of OC cells plated in 100 mm cell culture was obtained, dishes were treated with a respective concentration of SU056 for a respective time. […] Proteins were detected using Immobilon® Crescendo Western HRP Substrate (Millipore, Germany) and visualized on an IVIS Lumina Imaging System (Perkin Elmer, Waltham, MA).
FIGS. 4A-4E: SU056 inhibits YB-1. […] FIG. 4C) Respective OC cells were treated with 2.5 μM SU056 for 12 h and YB-1 & CD44 expression and multidrug resistance activity was measured as described in the ‘method’ section. […]

Another data set relates to ovarian cancer cells. The data set is described as follows: Apoptotic cell death assay (Annexin-FITC). The data set is classed as cell-based. The settings on record: 24 h treatment; Annexin-FITC staining. As to the method: To determine whether proliferation inhibition was the dominant factor driving the reduction in OC viability seen with AzP treatment, we used propidium iodide and annexin-FITC stains with flow cytometry to measure the distribution of cell cycle phases after treatment. […] Furthermore, in the Boyden chamber assay for cell migration, SU093 inhibited cell migration by 40-46% (1 μM, P<0.05) in different OC cell lines.
Apoptotic cell death assay: Cells were plated and treated as described in cell cycle analysis assay above. Treated cells were incubated for 24 h and both live and dead cells were collected. Cells were stained with Annexin V and PI using FITC Annexin V apoptosis detection kit (BD Pharmingen, San Jose, CA) by following the manufacturer's protocol. Guava® easyCyte™ Flow Cytometer was used to analyze the stained cells.
as §1

Data set [2] can be described thus: Tolerability of SU056 at increasing concentrations. Type of data set: in vivo. The following applies: for death: different concentration; for tolerability: increasing concentrations. An excerpt: FIGS. 15A-15E. […] SU056 treatment at increasing concentrations dose not challenge the dietary behavior as reflected by change in body weight FIG. 15A) Mice and FIG. 15B) Rat. […] Liver microsomes were used for the purpose of metabolic profiling.

On to `O=C1OCC2=C1C(c1cccc(F)c1)c1cc3c(cc1N2CCO)OCO3` (stereo not shown) [SU056, 9-(3-fluorophenyl)-5-(2-hydroxyethyl)-6,9-dihydro-[1,3]dioxolo[4,5-g]furo[3,4-b]quinolin-8(5H)-one], for which the OC colony formation entry in the data set on OVCAR-8 and ID8 cells was “decreased OC colony formation in a dose-dependent and significant manner”. Moreover, in data set [1], the “protein expression by Western blot” value was “inhibits the YB-1, TMSB10, SUMO2 and PMSB2 proteins in a dose-dependent manner”. Further, the apoptotic cell death result in the data set on ovarian cancer cells is “induce apoptotic cell death”. Moreover, in data set [2] (mice), the death entry was “did not cause death” and the tolerability entry was “well tolerated”. Besides, in data set [2] (rat), the death result is recorded as “did not cause death” and the tolerability result is reported as “well tolerated”.
